These results are taken from patent US4937246A, “PAF antagonist, 1,4-disubstituted piperazine compounds and production thereof” (priority 1987, dated 1990).

Like-named read-outs stand apart in the source and are kept apart here.

The subject of series [1] is PAF-induced platelet aggregation. The experiment in a line: Inhibitory action on PAF-induced platelet aggregation (turbidimetry, platelet rich plasma). The format is cell-based, rabbit (New Zealand white). Conditions: Oryctolagus cuniculus, Concentration of test compound: 3 × 10^-5 M. Here is the method:
Blood was collected from the hearts of conscious New Zealand white male rabbits weighing 2 to 3 Kg using citric acid as an anticoagulant (one volume part of 3.15% citric acid relative to 9 volume parts of the whole blood). The blood was subjected to a centrifuge at 800 rpm for 10 minutes to obtain platelet rich plasma (PRP). The remaining blood after collecting the PRP was subjected to a centrifuge at 3000 rpm for 10 minutes to obtain platelet poor plasma (PPP). PRP was diluted with PPP to adjust the number of platelets to about 500,000/μl. Platelet aggregation was examined by means of turbidimetry [Born, Nature, 194, 927-929 (1962)] with 8 channel aggregometer (NBS HEMA TRACER 6 Nikoh, Bio-science, Japan). More concretely, PRP (250μl) was kept warm (37° C.) for 3 minutes in a silicon-processed cuvette, to which was added a test sample (25μl) dissolved in a physiological saline or in 10mM dimethlsulfoxide followed by dilution with a physiological saline. Two minutes later, PAF (25μl, 3×10^-9 -1×10^-8 M), dissolved in a physiological saline, was added and then the maximum aggregation rate was determined. As the control, physiological saline without test sample was added to the cuvette, and the inhibitory rate thereon was determined.
Incidentally, Compound B means N,N'-bis(3,4,5-trimethoxybenzoyl)piperazine (a known compound).

The subject of series [2] is PAF-induced hypotension. The experiment in a line: Inhibitory action on PAF-induced hypotension (oral administration). Conditions: Rattus norvegicus; for inhibition in vivo at 30 mg/kg: 30 mg/kg oral; for inhibition in vivo at 3 mg/kg: 3 mg/kg oral; for inhibition in vivo at 10 mg/kg: 10 mg/kg oral. The format is in vivo, rat (SD (Jcl)). Here is the method:
SD (Jcl) male rats of 6 to 8 week old were applied with cannulation into the femoral artery and vein under anesthesia with pentobarbital. The animals were fasted overnight, then subjected to the experiment. A tansducer (MPU-0.5-290-0-III, TOYO BALDWIN, Japan) was connected with the artery cannula, and blood pressure was continuously measured by means of polygraph (San-ei, Japan). When the blood pressure became constant, PAF (0.5 to 1.0 μg/kg, 250 μl/kg) dissolved in a physiological saline was injected through the venous cannula to lower the blood pressures by 30 to 45 mmHg. Thirty minutes later, PAF was injected again, and the average of lowered values of blood pressure (twice) was used as the control. After restoration of blood pressure to the initial level, test samples prepared by dissolving or suspending the drug in a physiological saline suspension of gum arabic (5%) were orally administered (5 ml/kg), then, after 1, 2 and 4 hours, PAF was injected. The rate of inhibition of lowering of blood pressure after administration of the test samples against the control was evaluated.

The subject of series [3] is rats.

For the compound `COc1cc(C(=O)N2CCN(C(=O)c3cc(OC)c(OC)c(OC)c3)CC2)cc(OC)c1OC` [Compound B, N,N'-bis(3,4,5-trimethoxybenzoyl)piperazine, reference compound], 30 µM produced 100% inhibition in series [1]. Further, the inhibition in vivo (usually the relative decrease from the control value, in per cent) at 30 mg/kg in series [2] (after 1 hr.) was determined as 86%; in series [2] (after 2 hrs.), 63%; in series [2] (after 4 hrs.), 26%. Moreover, the “LD50 (estimated)” value in series [3] (oral, rats, single dose) was around 1000 mg/kg. In addition, the survival entry in series [3] (rat, in vivo, po, 1000 mg/kg) is “all of the animals survived”.
Take `COc1cc(CN2CCN(C(=O)c3cc4ccccc4o3)CC2)cc(OC)c1OC.Cl` [Working Example 7, 1-(2-benzofuranylcarbonyl)4-(3,4,5-trimethoxybenzyl)piperazine hydrochloride]: the survival result in series [3] (single oral dose 1000 mg/kg, rats, one week observation) was “all of the animals survived”.
In the case of `COc1cc(CN2CCN(C(=O)c3cc(OC)c(OC)c(OC)c3)CC2)cc(OC)c1OC` [compound 2], 30 µM produced 100% inhibition in series [1].
Consider `CCCOc1c(OC)cc(C(=O)N2CCN(Cc3cc(OC)c(OC)c(OC)c3)CC2)cc1[N+](=O)[O-]` [compound 3], for which testing at 30 µM in series [1] gave an inhibition of 100%. In addition, the inhibition in vivo at 30 mg/kg in series [2] (after 1 hr.) came to 86%; in series [2] (after 2 hrs.), 63%; in series [2] (after 4 hrs.) it was 26%.
On to `COc1ccc(C(=O)N2CCN(Cc3cc(OC)c(OC)c(OC)c3)CC2)cc1OC` [compound 4], for which the inhibition in vivo at 30 mg/kg in series [2] (after 1 hr.) amounted to 64%; in series [2] (after 2 hrs.) it was 32%; in series [2] (after 4 hrs.), 22%.
`CCCCOc1c(OC)cc(C(=O)N2CCN(C(=O)c3cc(OC)c(OC)c(OC)c3)CC2)cc1[N+](=O)[O-]` [compound 5]: the inhibition in vivo at 30 mg/kg in series [2] (after 1 hr.) was 91%; in series [2] (after 2 hrs.), 93%; in series [2] (after 4 hrs.), 88%.
As to `COc1cc(CN2CCN(C(=O)C3=Cc4cc5c(cc4CC3)OCO5)CC2)cc(OC)c1OC` [compound 6], the inhibition (usually the relative decrease from the control value, in per cent) at 30 µM in series [1] stood at 93%.
In series [1], `COc1cc(CN2CCN(C(=O)c3cc4ccccc4o3)CC2)cc(OC)c1OC` [compound 7] had an inhibition at 30 µM of 74%. The inhibition in vivo at 30 mg/kg in series [2] (after 1 hr.) was 4%; in series [2] (after 2 hrs.), 15%; in series [2] (after 4 hrs.), 25%.
`COc1cc(CN2CCN(C(=O)c3cccnc3)CC2)cc(OC)c1OC` [compound 8] came in with an inhibition at 30 µM in series [1] of 63%.
The same measure, in the same setting: then `COc1cc(CN2CCN(C(=O)c3nc4ccccc4s3)CC2)cc(OC)c1OC` [compound 9], with 52%.
In turn, `COc1cc(CN2CCN(C(=O)c3cc4ccccc4oc3=O)CC2)cc(OC)c1OC` [compound 12] came in with an inhibition at 30 µM in series [1] of 78%. Moreover, the inhibition in vivo at 30 mg/kg in series [2] (after 1 hr.) worked out at 65%; in series [2] (after 2 hrs.), 40%; in series [2] (after 4 hrs.), 24%.
Regarding `COc1cc(CN2CCN(C(=O)c3ccsc3)CC2)cc(OC)c1OC` [compound 13], in series [1], the inhibition at 30 µM was found to be 46%.
Same read-out and setting: then `COc1cc(CN2CCN(C(=O)c3cnc4ccccc4c3)CC2)cc(OC)c1OC` [compound 16], with 58%; and `COc1cc(CN2CCN(C(=O)c3ccc4c(c3)OCCO4)CC2)cc(OC)c1OC` [compound 17], with 88%.
Still for that read-out and setting: the result for `COc1ccc2c3c(oc2c1)CCC(C(=O)N1CCN(Cc2cc(OC)c(OC)c(OC)c2)CC1)=C3` [compound 18] reads 84%; that for `COc1cc(CN2CCN(C(=O)C3CCc4sc5ccccc5c4C3O)CC2)cc(OC)c1OC` (centres unmarked) [compound 19], 64%.
On to `COc1cc(CN2CCN(C(=O)c3ccc4c(c3)C(=O)C3(CC3)O4)CC2)cc(OC)c1OC` [compound 21], for which, in series [1], 30 µM produced 100% inhibition.
The compound `COc1cc(CN2CCN(C(=O)c3ccc4c(c3)C(O)C3(CC3)O4)CC2)cc(OC)c1OC` (centres unmarked) [compound 22] displayed an inhibition at 30 µM in series [1] of 100%. Also, the figures for the inhibition in vivo at 30 mg/kg in series [2] (after 1 hr.), in series [2] (after 2 hrs.) and in series [2] (after 4 hrs.) were 94%, 80% and 2%, respectively.
The like results for `COc1cc2c(cc1OC)SCCC(C(=O)N1CCN(Cc3cc(OC)c(OC)c(OC)c3)CC1)=C2` [compound 23] were, in that order, 74%, 94%, 94% and 67%.
The like results for `COc1cc2c(cc1OC)SCCC(C(=O)N1CCN(C(=O)c3cc(OC)c(OC)c(OC)c3)CC1)=C2` [compound 24] were, in that order, 100%, 94%, 91% and 78%.
Regarding `COc1cc2c(cc1OC)OCCC(C(=O)N1CCN(Cc3cc(OC)c(OC)c(OC)c3)CC1)=C2` [compound 25], the inhibition at 30 µM in series [1] turned out to be 100%. Also, the inhibition in vivo at 30 mg/kg in series [2] (after 1 hr.) was found to be 100%; in series [2] (after 2 hrs.) it was 97%; in series [2] (after 4 hrs.), 70%.
As to `COc1cc2c(cc1OC)OCCC(C(=O)N1CCN(C(=O)c3cc(OC)c(OC)c(OC)c3)CC1)=C2` [compound 26], the inhibition at 30 µM in series [1] stood at 100%. In series [2] (after 1 hr.), this compound had an inhibition in vivo at 3 mg/kg of 74%, an inhibition in vivo at 10 mg/kg of 100% and an inhibition in vivo at 30 mg/kg of 98%. In series [2] (after 2 hrs.), this compound yielded an inhibition in vivo at 3 mg/kg of 70%, an inhibition in vivo at 10 mg/kg of 100% and an inhibition in vivo at 30 mg/kg of 99%. In series [2] (after 4 hrs.), this compound came in with an inhibition in vivo at 3 mg/kg of 44%, an inhibition in vivo at 10 mg/kg of 87% and an inhibition in vivo at 30 mg/kg of 100%.
On to `COc1ccc2c(c1)C=C(C(=O)N1CCN(C(=O)c3cc(OC)c(OC)c(OC)c3)CC1)CCO2` [compound 27], for which the inhibition in vivo at 10 mg/kg in series [2] (after 1 hr.) came out at 79%; in series [2] (after 2 hrs.), 75%; in series [2] (after 4 hrs.), 62%. Besides, the inhibition in vivo at 30 mg/kg in series [2] (after 1 hr.) is 100%; in series [2] (after 2 hrs.), 100%; in series [2] (after 4 hrs.) it was 86%.
Regarding `COc1ccc2c(c1)OCCC(C(=O)N1CCN(C(=O)c3cc(OC)c(OC)c(OC)c3)CC1)=C2` [compound 28], the inhibition in vivo at 30 mg/kg in series [2] (after 1 hr.) was found to be 92%; in series [2] (after 2 hrs.), 91%; in series [2] (after 4 hrs.), 92%.
As for `COc1cc2c(cc1OC)OCCC(C(=O)N1CCN(C(=S)c3cc(OC)c(OC)c(OC)c3)CC1)=C2` [compound 29], the inhibition in vivo at 3 mg/kg turned out to be 67% in series [2] (after 1 hr.), 71% in series [2] (after 2 hrs.) and 61% in series [2] (after 4 hrs.). In addition, the inhibition in vivo at 30 mg/kg in series [2] (after 1 hr.), in series [2] (after 2 hrs.) and in series [2] (after 4 hrs.) was 100% throughout.
In turn, `COc1cc2c(cc1OC)OCCC(C(=O)N1CCN(C(=O)c3cc(OC)c(OC)c(OC)c3)CC1)C2` (centres unmarked) [compound 33] gave an inhibition at 30 µM in series [1] of 47%. In addition, the results for the inhibition in vivo at 30 mg/kg in series [2] (after 1 hr.), in series [2] (after 2 hrs.) and in series [2] (after 4 hrs.) were 99%, 99% and 79%, respectively.
